According to patent US20120003335A1, “CONSTITUTIVE ANDROSTANE RECEPTOR (CAR) AS A THERAPEUTIC TARGET FOR OBESITY AND TYPE TWO DIABETES” (UNIVERSITY OF PITTSBURGH-OF THE COMMONWEALTH SYSTEM OF …, priority 2008, published 2012):

Columns and labels:
[1] = system: CAR-/- mice; assay: Lipogenic and gluconeogenic gene expression in CAR-/- mice; assay type: in vivo; conditions: C57BL/6J and SvJ129 mixed background, HFD five week
Description: The suppression of lipogenic and gluconeogenic gene expression was also seen in TCPOBOP-treated wild type mice of C57BL/6J and SvJ129 mixed background (data not shown).

[2] = system: HFD-fed mice; assay: VLDL secretion rate; assay type: in vivo; conditions: after 5-week treatment
[3] = system: BAT genes involved in energy expenditure; assay: BAT energy expenditure gene expression and oxygen consumption; parameters: species or system mice; conditions: mouse, in vivo
Description: BAT plays an important role in regulating energy expenditure. The smaller BAT in TCPOBOP-treated mice prompted an examination of the expression of BAT genes involved in energy expenditure.

[4] = system: adipose triglyceride lipase (ATGL), hormone sensitive lipase (HSL); assay: Lipase expression in WAT; parameters: species or system mice; conditions: mouse, in vivo
[5] = system: HFD-fed C57BL/6j mice; assay: Fasting serum glucose and lipid profile, HFD-fed mice; assay type: in vivo
Description: (§1) Since obesity is strongly associated with insulin resistance, a typical characteristic of type two diabetes, whether the CAR agonist can also improve insulin sensitivity was examined. […] The insulin sensitizing effect of TCPOBOP was also evident in ob/ob mice (FIGS. 3C and 3D).

[6] = system: HFD-fed mice; assay: Leptin and adiponectin production and food intake; assay type: in vivo
Description: Leptin is an adipokine primarily produced in WAT. […] HFD induced leptin mRNA expression as expected (FIG. 8A). […] The decreased production of leptin may have resulted from decreased fat mass, and the inhibition of food intake may have contributed to the anti-obesity effect.

[7] = system: HFD-fed mice; assay: Hepatic steatosis, adipose tissue size and adipocyte morphology; assay type: in vivo; conditions: treated five weeks
[8] = system: Cyp2b10; conditions: 0.5 mg/kg once a week
[9] = system: ob/ob mice; assay: Insulin sensitivity by GTT and ITT, ob/ob mice; assay type: in vivo
Description: as §1

[10] = system: ob/ob mice; assay: Fasting serum glucose and lipid profile, ob/ob mice; assay type: in vivo
Description: as §1

[11] = system: ob/ob mice; assay: Obesity in genetically leptin deficient ob/ob mice; assay type: in vivo
Description: TCPOBOP was also effective in the genetically leptin deficient and obese ob/ob mice. In this experiment, 7-week old female ob/ob mice were maintained in chow diet and treated with TCPOBOP or vehicle for eight weeks.

[12] = system: C57BL/6J mice fed with high fat diet (HFD); assay: Prevention of high fat diet-induced obesity (body weight, MRI body composition); assay type: in vivo; conditions: male mice, HFD five weeks, 0.5 mg/kg once a week
Description: Eight-week male C57BL/6J mice were fed with high fat diet (HFD) for five weeks and simultaneously treated with the CAR agonist TCPOBOP (0.5 mg/kg, once a week) or vehicle (DMSO). […] The effect of TCPOBOP on the fat mass was so dramatic that the differences were obvious and significant after one week of drug treatment (FIGS. 1A-b and 1A-c). At the end of five-week treatment, the body weight differences between TCPOBOP group and vehicle group were completely accountable by the gain of fat mass in the TCPOBOP group (FIG. 1B).

[13] = system: C57BL/6J female mice fed with HFD; assay: Treatment of pre-existing HFD-induced obesity; assay type: in vivo
Description: To determine whether CAR activation is effective in controlling obesity in mice with pre-existing obesity, C57BL/6J female mice were fed with HFD for six weeks, followed by 6 weeks of TCPOBOP (0.5 mg/kg, once a week) treatment when mice remained on HFD.

[14] = system: PPARα and its target genes; assay: Expression of beta-oxidation genes in liver and skeletal muscle; assay type: in vivo, mice
Description: (§2) The effect of TCPOBOP on the fatty acid oxidation in the liver and skeletal muscle also was investigated. […] These include the suppression of long-chain acyl-CoA dehydrogenase (Aacdl), medium-chain acyl CoA dehydrogenase (Acadm) and HMG-CoA synthase (HMGCS2).

[15] = system: lipogenic genes (Srebp-1c, Acc-1, Fas, Scd-1) and gluconeogenic enzymes (G6p, Pepck); assay: Lipogenic and gluconeogenic gene expression in tissues of HFD-fed mice; assay type: in vivo
Description: To understand the mechanisms by which CAR inhibits obesity and improves insulin sensitivity, gene expression was profiled in several relevant tissues, including the liver, skeletal muscle, white adipose tissue (WAT) and brown adipose tissue (BAT) in HFD-fed C57BL/6J mice treated with TCPOBOP for one week.
Since excessive VLDL production and triglyceride secretion contribute to the pathogenesis of hypertriglyceridemia, obesity and diabetes, VLDL secretion rate after a 5-week TCPOBOP treatment also was evaluated. […] The inhibition of VLDL secretion was consistent with the lower serum triglyceride level (data not shown) and inhibition of hepatic lipogenesis (FIG. 5A) in these animals.

[16] = system: HFD-fed C57BL/6J male mice; assay: Insulin sensitivity by GTT and ITT, HFD-fed mice; assay type: in vivo; conditions: five weeks treatment
Description: as §1

[17] = system: gastrocnemius muscle derived from HFD-fed mice; assay: Mitochondrial β-oxidation rate in gastrocnemius muscle ([14C]-oleate)
Description: as §2

[18] = short-term (one week) treatment
[19] = HFD-fed C57BL/6J mice, treated one week

Q: For `Clc1cnc(Oc2ccc(Oc3ncc(Cl)cc3Cl)cc2)c(Cl)c1` [TCPOBOP, 1,4-bis[2-(3,5 dichloropyridyloxy)] benzene], which “expression of lipogenic and gluconeogenic genes in liver, skeletal muscle, WAT, BAT” value [1] is on record?
A: none of the lipogenic and gluconeogenic genes was significantly altered

Q: What about the “VLDL secretion rate vs vehicle group” value [2] of the same compound?
A: significantly reduced

Q: And the “BAT expression of PGC-1b, mCPT-I, LCAD, D2, UCP-1, UCP-2 and UCP-3” value [3]?
A: significantly increased

Q: And the oxygen consumption [3]?
A: increased oxygen consumption

Q: What about the “expression of adipose triglyceride lipase (ATGL) in WAT” value [4] of the same compound?
A: induced in WAT

Q: And the “expression of hormone sensitive lipase (HSL) in WAT” value [4]?
A: but not the hormone sensitive lipase (HSL)

Q: And the “Fasting Glucose” value [5]?
A: 102.8 ± 17.7 mg/dL

Q: What about the “Free Fatty Acid” value ([5]; fasting serum) of the same compound?
A: 6.8 ± 0.6 µM

Q: And the Insulin ([5]; fasting serum)?
A: 1.57 ± 0.37 ng/mL

Q: And the “Total Cholesterol” value ([5]; fasting serum)?
A: 89.7 ± 5.3 mg/dL

Q: What about the “Total Triglyceride” value ([5]; fasting serum) of the same compound?
A: 132.8 ± 17.7 mg/dL

Q: And the expression of adiponectin ([6]; HFD-fed mice)?
A: increased expression of adiponectin

Q: What about the “leptin mRNA level vs vehicle-treated counterparts” value ([6]; HFD-fed mice) of the same compound?
A: dramatically lower

Q: What about the “leptin production at the protein level” value ([6]; HFD-fed mice) of the same compound?
A: decreased leptin production

Q: What about the food intake ([6]; mouse, in vivo) of the same compound?
A: significantly reduced the food intake

Q: And the adipocyte morphology [7]?
A: adipocyte hypotrophy

Q: And the hepatic steatosis [7]?
A: ameliorated hepatic steatosis

Q: What about the “sizes of abdomen WAT and BAT” value [7] of the same compound?
A: decreased sizes of abdomen WAT and BAT

Q: What about the “Cyp2b10 gene expression in the liver” value [8] of the same compound?
A: activation of Cyp2b10

Q: And the “insulin sensitizing effect (GTT and ITT)” value [9]?
A: also evident

Q: And the “Free Fatty Acid” value [10]?
A: 21.4 ± 1.54 µM

Q: And the “Total Cholesterol” value [10]?
A: 90.2 ± 9.9 mg/dL

Q: What about the “Total Triglyceride” value [10] of the same compound?
A: 126.3 ± 13.7 mg/dL

Q: What about the “gain of fat mass” value ([11]; 7-week old female ob/ob mice, chow diet, eight weeks treatment) of the same compound?
A: less gain of fat mass

Q: What about the “body weight vs vehicle group” value ([11]; end of eight week treatment) of the same compound?
A: significantly lower body weight

Q: And the fat mass ([11]; end of eight week treatment)?
A: deceased fat mass

Q: What about the lean mass ([11]; end of eight week treatment) of the same compound?
A: increased lean mass

Q: And the “lean mass, TCPOBOP vs vehicle group” value [12]?
A: not significantly different

Q: What about the “gain of body weight” value ([12]; after two weeks of drug treatment, vs vehicle (DMSO)) of the same compound?
A: significantly inhibited gain of body weight

Q: What about the “lean to body weight ratio” value ([12]; ratio decreased in vehicle-treated mice) of the same compound?
A: remained steady

Q: What about the “gain of fat mass (MRI)” value ([12]; vs vehicle) of the same compound?
A: significantly inhibited the gain of fat mass

Q: What about the fat mass ([13]; HFD six weeks, then 6 weeks 0.5 mg/kg once a week on HFD) of the same compound?
A: inhibition of gain of fat mass

Q: And the body weight course ([13]; HFD six weeks, then 6 weeks 0.5 mg/kg once a week on HFD, vehicle group continued to gain)?
A: stabilized the mouse body weight

Q: And the “body weight vs vehicle group” value ([13]; after 5 weeks of drug treatment)?
A: significantly lower than the vehicle group

Q: What about the “expression of PPARα and its target genes involved in β-oxidation and ketogenesis, liver and skeletal muscle” value ([14]; chronic (five weeks) treatment) of the same compound?
A: significantly suppressed

Q: And the “expression of PPARα” value [14, 18]?
A: modestly suppressed

Q: And the “expression of genes related to β-oxidation” value [14, 18]?
A: little effect

Q: What about the “Fas and Scd-1 gene expression in skeletal muscle, BAT and WAT” value [15, 19] of the same compound?
A: Significant inhibition

Q: And the “expression of Acc-1 in BAT” value [15, 19]?
A: significantly inhibited

Q: What about the “expression of lipogenic genes Srebp-1c, Acc-1, Fas and Scd-1 in the liver” value [15, 19] of the same compound?
A: suppressed the expression of lipogenic genes

Q: And the “expression of glucose-6-phosphatase (G6p) and phosphoenolpyruvate carboxykinase (Pepck)” value ([15]; after 5-week treatment)?
A: significantly inhibited

Q: And the “insulin sensitivity (GTT and ITT)” value [16]?
A: significantly improved insulin sensitivity

Q: And the “substrate switch on addition of pyruvate” value ([17]; pyruvate added to incubation buffer, vehicle mitochondria failed to switch)?
A: showed significant switch

Q: And the “accumulation of radiolabeled intermediates in the acid-soluble metabolite (ASM) (incomplete β-oxidation)” value ([17]; vs vehicle group)?
A: much more dramatic reduction

Q: And the “rate of [14C]-oleate oxidation to CO2 (complete β-oxidation)” value ([17]; vs vehicle group)?
A: modest, although significant, decrease
